Experimental data as given in patent US12473293B2, “Pharmacologically active heterocyclic-substituted pyrazolo[1,5-a]pyrimidine derivatives” (Richter Gedeon Nyrt., priority 2020, dated 2025).
Counter-ions that a name gives are not always drawn.

Biological target: T1, GABAB receptor (Rattus norvegicus, UniProt O88871+Q9Z0U4)
T1 construct: from tissue; host or cells: rat brain cortex membranes
Test: In vitro [35S]GTPγS binding assay in rat cortical membranes
Assay type: biochemical
Conditions: PAM EC50, [35S]GTPγS binding, read-out: In vitro PAM potency
Protocol: In Vitro [^35S]GTPγS Binding Assay in Rat Cortical Membranes
Cortices of freshly harvested rat brains were dissected on an ice-cold surface and homogenized by a glass Dounce homogeniser immediately in ice-cold buffer containing 50 mM Tris, 5 mM MgCl2 and 1 mM EDTA (pH=7.6). Tissue homogenates were centrifuged at 40000 g for 15 min at 4° C. Membrane pellets were resuspended in the same buffer and membranes were incubated for 10 min at 30° C. in a shaking water bath to eliminate endogenous GABA. Homogenates were centrifuged again under the same conditions. The final pellets were resuspended in ice-cold buffer (pH=7.6) containing 50 mM Tris, 100 mM NaCl, 7 mM MgCl2, 1 mM EDTA and 1 mM dithiotreithol (DTT) to yield a concentration of 20 mg tissue weight/ml and frozen at −70° C. until use. The assay was done in a buffer containing 50 mM Tris (pH=7.4), 100 mM NaCl, 7 mM MgCl2, 1 mM EDTA and 1 mM DTT. Each assay tube contained 150 μL GDP (in a final concentration of 50 μM), 100 μL ligand and 125 μL of the membrane suspension ([…]). The assay tubes were preincubated for 10 min at 30° C. to assure equilibrium. Nonspecific binding was determined in the presence of 10 μM GTPγS; basal binding was determined in the presence of buffer only. After addition of […] [^35S]GTPγS in a volume of 25 μL to the tubes, membranes were incubated for an additional 60 min at 30° C. The assay was terminated by rapid filtration through Packard UniFilter GF/B using a Packard harvester and washed four times with 1 ml ice-cold buffer. After drying the filters at 40° C. for 1 h, 40 μL Microscint (Packard) was added to the filters and radioactivity of the filters was determined by a TopCount NXT (PerkinElmer, Waltham, MA; Alper and Nelson, Eur. J. Pharmacol. 1998, 343, 303-312; Rinken et al, Biochem. Pharmacol. 1999, 57, 155-162). Data thus gathered were used to determine PAM EC50 values for each compound as primary in vitro activity end point.
In Table 1 compounds of this invention measured in the [^35S]GTPγS binding assay are listed.

T1 sequence (O88871 41-940): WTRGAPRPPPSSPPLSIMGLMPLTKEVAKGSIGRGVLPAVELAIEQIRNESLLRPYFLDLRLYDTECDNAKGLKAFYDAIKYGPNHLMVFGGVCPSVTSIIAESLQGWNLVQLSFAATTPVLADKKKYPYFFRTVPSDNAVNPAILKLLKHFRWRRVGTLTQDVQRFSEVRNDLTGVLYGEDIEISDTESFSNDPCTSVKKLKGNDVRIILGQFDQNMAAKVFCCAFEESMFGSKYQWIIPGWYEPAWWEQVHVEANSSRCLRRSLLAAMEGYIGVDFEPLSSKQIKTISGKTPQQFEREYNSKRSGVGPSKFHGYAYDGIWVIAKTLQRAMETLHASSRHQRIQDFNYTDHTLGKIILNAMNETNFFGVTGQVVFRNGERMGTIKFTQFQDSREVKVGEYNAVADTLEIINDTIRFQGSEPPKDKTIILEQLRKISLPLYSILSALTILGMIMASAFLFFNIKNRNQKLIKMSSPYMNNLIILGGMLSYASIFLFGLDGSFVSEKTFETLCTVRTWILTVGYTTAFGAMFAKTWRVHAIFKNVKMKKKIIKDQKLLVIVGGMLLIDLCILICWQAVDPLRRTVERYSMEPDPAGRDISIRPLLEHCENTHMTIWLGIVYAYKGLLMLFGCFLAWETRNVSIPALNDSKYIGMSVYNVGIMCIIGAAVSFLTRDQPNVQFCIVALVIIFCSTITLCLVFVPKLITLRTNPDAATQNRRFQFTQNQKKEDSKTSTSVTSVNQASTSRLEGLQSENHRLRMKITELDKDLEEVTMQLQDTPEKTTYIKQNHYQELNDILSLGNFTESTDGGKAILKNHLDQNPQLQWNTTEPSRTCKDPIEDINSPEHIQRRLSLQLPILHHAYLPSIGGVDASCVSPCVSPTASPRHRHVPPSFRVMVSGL
T1 sequence (Q9Z0U4 17-960 limits assumed): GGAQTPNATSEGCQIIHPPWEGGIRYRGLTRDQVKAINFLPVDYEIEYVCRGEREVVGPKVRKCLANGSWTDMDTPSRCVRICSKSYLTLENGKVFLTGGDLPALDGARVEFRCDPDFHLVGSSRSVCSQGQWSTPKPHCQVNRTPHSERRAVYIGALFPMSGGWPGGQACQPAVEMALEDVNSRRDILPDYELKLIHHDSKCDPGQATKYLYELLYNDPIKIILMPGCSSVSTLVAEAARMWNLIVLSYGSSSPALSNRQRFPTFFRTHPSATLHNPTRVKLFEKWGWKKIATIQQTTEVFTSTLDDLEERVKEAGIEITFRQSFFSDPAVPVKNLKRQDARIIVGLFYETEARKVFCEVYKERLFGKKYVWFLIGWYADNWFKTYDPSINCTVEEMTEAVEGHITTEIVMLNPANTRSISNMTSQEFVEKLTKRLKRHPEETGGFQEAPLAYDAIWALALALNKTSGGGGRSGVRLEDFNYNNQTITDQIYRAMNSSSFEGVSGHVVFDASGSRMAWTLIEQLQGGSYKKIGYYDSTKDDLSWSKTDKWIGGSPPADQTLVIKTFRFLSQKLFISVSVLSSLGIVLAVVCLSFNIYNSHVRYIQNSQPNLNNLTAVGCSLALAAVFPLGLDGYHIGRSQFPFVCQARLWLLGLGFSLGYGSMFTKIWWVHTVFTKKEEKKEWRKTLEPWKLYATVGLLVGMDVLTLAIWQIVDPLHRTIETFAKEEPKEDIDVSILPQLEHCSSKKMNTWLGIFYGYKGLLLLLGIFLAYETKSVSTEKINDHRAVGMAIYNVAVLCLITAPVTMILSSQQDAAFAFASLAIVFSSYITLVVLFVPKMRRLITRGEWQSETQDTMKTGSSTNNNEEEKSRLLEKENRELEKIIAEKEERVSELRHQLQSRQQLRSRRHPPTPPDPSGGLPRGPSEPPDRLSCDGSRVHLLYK

Row | Compound | EC50
1 | 2-[(3R)-3-{5,6-dimethyl-2-[trans-4-(trifluoromethyl)cyclohexyl]pyrazolo[1,5-a]pyrimidin-7-yl}-3-methylpiperidin-1-yl]acetic acid hydrochloride [Example 19] | 100 to 1000 nM
2 | Cc1nc2cc([C@H]3CC[C@H](C(F)(F)F)CC3)nn2c([C@@H]2CN(C)CC[C@@H]2C)c1C (racemic) [Example 56] | 1000 to 10000 nM
3 | CC(=O)N1CC[C@@H](C)[C@@H](c2cc(C)nc3c(F)c([C@H]4CC[C@H](C(F)(F)F)CC4)nn23)C1 (single isomer, unassigned) [Example 3] | 1000 to 10000 nM
4 | Cc1cc([C@@H]2CN(C=O)CC[C@@H]2C)n2nc([C@H]3CC[C@H](C(F)(F)F)CC3)cc2n1 (single isomer, unassigned) [Example 8] | 1000 to 10000 nM
5 | Cc1cc([C@@H]2CN(C=O)C(C)(C)CO2)n2nc([C@H]3CC[C@H](C(F)(F)F)CC3)cc2n1 (single isomer, unassigned) [Example 10] | 1000 to 10000 nM
6 | COC(=O)N1C[C@@H](c2cc(C)nc3cc([C@H]4CC[C@H](C(F)(F)F)CC4)nn23)OCC1(C)C (single isomer, unassigned) [Example 12] | 1000 to 10000 nM
7 | COC(=O)N1CC[S+]([O-])C(c2cc(C)nc3cc([C@H]4CC[C@H](C(F)(F)F)CC4)nn23)C1 (stereo partly shown) [Example 17] | 1000 to 10000 nM
8 | Cc1nc2cc([C@H]3CC[C@H](C(F)(F)F)CC3)nn2c([C@@H]2CCCN(C(=O)[C@@H](N)CO)C2)c1C [Example 21, (2S)-2-amino-1-[(3R)-3-{5,6-dimethyl-2-[trans-4-(trifluoromethyl)cyclohexyl]pyrazolo[1,5-a]pyrimidin-7-yl}piperidin-1-yl]-3-hydroxypropan-1-one] | 1000 to 10000 nM
9 | Cc1cc([C@@H]2CCCN(C(C)C)C2)n2nc([C@H]3CC[C@H](C(F)(F)F)CC3)cc2n1 [Example 24, (3R)-3-{5-methyl-2-[trans-4-(trifluoromethyl)cyclohexyl]pyrazolo[1,5-a]pyrimidin-7-yl}-1-(propan-2-yl)piperidine] | 1000 to 10000 nM
10 | Cc1cc([C@H]2CN(C(N)=O)CCO2)n2nc([C@H]3CC[C@H](C(F)(F)F)CC3)cc2n1 [Example 26, (2R)-2-{5-methyl-2-[trans-4-(trifluoromethyl)cyclohexyl]pyrazolo[1,5-a]pyrimidin-7-yl}morpholine-4-carboxamide] | 100 to 1000 nM
11 | Cc1cc([C@@H]2CCCS(=O)(=O)C2)n2nc([C@H]3CC[C@H](C(F)(F)F)CC3)cc2n1 [Example 27, 3-{5-methyl-2-[trans-4-(trifluoromethyl)cyclohexyl]pyrazolo[1,5-a]pyrimidin-7-yl}-1λ^6-thiane-1,1-dione] | 100 to 1000 nM
12 | Cc1cc(C2OCCN(C)C2=O)n2nc([C@H]3CC[C@H](C(F)(F)F)CC3)cc2n1 (stereo partly drawn) [Example 30, 4-methyl-2-{5-methyl-2-[trans-4-(trifluoromethyl)cyclohexyl]pyrazolo[1,5-a]pyrimidin-7-yl}morpholin-3-one] | 1000 to 10000 nM
13 | CC(=O)N1CCC[C@@H](c2c(C)c(C)nc3cc([C@H]4CC[C@H](C(F)(F)F)CC4)nn23)C1 [Example 33] | 100 to 1000 nM
14 | CC(=O)N1CCC[C@](C)(c2cc(C)nc3cc([C@H]4CC[C@H](C(F)(F)F)CC4)nn23)C1 [Example 36] | 1000 to 10000 nM
15 | CC(=O)N1CCC[C@](C)(c2c(C)c(C)nc3cc([C@H]4CC[C@H](C(F)(F)F)CC4)nn23)C1 [Example 37] | 100 to 1000 nM
16 | CC(=O)N1CCC[C@@](C)(c2c(C)c(C)nc3cc([C@H]4CC[C@H](C(F)(F)F)CC4)nn23)C1 [Example 45] | 100 to 1000 nM
17 | Cc1nc2cc([C@H]3CC[C@H](C(F)(F)F)CC3)nn2c([C@]2(C)CCCN(CC(F)(F)F)C2)c1C [Example 48] | 100 to 1000 nM

The remaining lines, values ahead:

Row | EC50 | Compound
18 | 100 to 1000 nM | Cc1cc([C@@H]2CN(C(=O)N(C)C)CC[C@@H]2C)n2nc([C@H]3CC[C@H](C(F)(F)F)CC3)c(F)c2n1 (racemic) [Example 46]
19 | 100 to 1000 nM | CC(=O)N1CC[C@H](C)[C@H](c2c(C)c(C)nc3cc([C@H]4CC[C@H](C(F)(F)F)CC4)nn23)C1 (racemic) [Example 55]
20 | 100 to 1000 nM | Cc1nc2cc([C@H]3CC[C@H](C(F)(F)F)CC3)nn2c([C@@H]2CN(C(=N)N)CC[C@@H]2C)c1C (racemic) [Example 57]
21 | 100 to 1000 nM | COC(=O)N1CC[C@H](C)[C@H](c2cc(C)nc3cc([C@H]4CC[C@H](C(F)(F)F)CC4)nn23)C1 (racemic) [Example 76]
22 | 100 to 1000 nM | Cc1cc([C@H]2CCCN(C=O)[C@H]2C)n2nc([C@H]3CC[C@H](C(F)(F)F)CC3)cc2n1 (racemic) [Example 81]
23 | 100 to 1000 nM | Cc1cc([C@@H]2CN(S(C)(=O)=O)CC[C@@H]2C)n2nc([C@H]3CC[C@H](C(F)(F)F)CC3)cc2n1 (racemic) [Example 85]
24 | < 100 nM | COC(=O)N1CCC[C@H](c2cc(C)nc3cc([C@H]4CC[C@H](C(F)(F)F)CC4)nn23)[C@H]1C (racemic) [Example 92]
25 | 100 to 1000 nM | Cc1cc([C@H]2C[C@@H](C)CN(C=O)C2)n2nc([C@H]3CC[C@H](C(F)(F)F)CC3)cc2n1 (racemic) [Example 104]
26 | 100 to 1000 nM | COC(=O)N1CC[C@H](C)[C@@H](c2cc(C)nc3cc([C@H]4CC[C@H](C(F)(F)F)CC4)nn23)C1 (racemic) [Example 159]
27 | 100 to 1000 nM | Cc1cc([C@@H]2CN(C=O)CC[C@@H]2C)n2nc([C@H]3CC[C@H](C(F)(F)F)CC3)cc2n1 (racemic) [Example 160]
28 | 100 to 1000 nM | Cc1cc(C2CCCOC2)n2nc([C@H]3CC[C@H](C(F)(F)F)CC3)cc2n1 (mixture of isomers) [Example 161]
29 | 100 to 1000 nM | CC(=O)N1CCC(C)C(c2cc(C)nc3c(F)c(C4CCC(C(F)(F)F)CC4)nn23)C1 (single isomer, unassigned) [Example 2]
30 | 100 to 1000 nM | COC(=O)N1CC[C@H](C)[C@@H](c2cc(C)nc3cc([C@H]4CC[C@H](C(F)(F)F)CC4)nn23)C1 (single isomer, unassigned) [Example 4]
31 | 100 to 1000 nM | COC(=O)N1CC[C@H](C)[C@H](c2cc(C)nc3cc([C@H]4CC[C@H](C(F)(F)F)CC4)nn23)C1 (single isomer, unassigned) [Example 6]
32 | 100 to 1000 nM | COC(=O)N1CC[C@@H](C)[C@@H](c2cc(C)nc3cc([C@H]4CC[C@H](C(F)(F)F)CC4)nn23)C1 (single isomer, unassigned) [Example 7]
33 | < 100 nM | Cc1cc([C@H]2CCCOC2)n2nc([C@H]3CC[C@H](C(F)(F)F)CC3)cc2n1 (single isomer, unassigned) [Example 28]
34 | 100 to 1000 nM | Cc1cc([C@@H]2CCCOC2)n2nc([C@H]3CC[C@H](C(F)(F)F)CC3)cc2n1 (single isomer, unassigned) [Example 29]
35 | 100 to 1000 nM | Cc1nc2cc([C@H]3CC[C@H](C(F)(F)F)CC3)nn2c([C@]2(C)CCCN(CC#N)C2)c1C [Example 18, 2-[(3R)-3-{5,6-dimethyl-2-[trans-4-(trifluoromethyl)cyclohexyl]pyrazolo[1,5-a]pyrimidin-7-yl}-3-methylpiperidin-1-yl]acetonitrile hydrochloride]
36 | 100 to 1000 nM | Cc1cc([C@@H]2CCCN(C=O)C2)n2nc([C@H]3CC[C@H](C(F)(F)F)CC3)cc2n1 [Example 22, (3R)-3-{5-methyl-2-[trans-4-(trifluoromethyl)cyclohexyl]pyrazolo[1,5-a]pyrimidin-7-yl}piperidine-1-carbaldehyde]
37 | 100 to 1000 nM | Cc1cc([C@@H]2CCCN(C(=N)N)C2)n2nc([C@H]3CC[C@H](C(F)(F)F)CC3)cc2n1 [Example 23, (3R)-3-{5-methyl-2-[trans-4-(trifluoromethyl)cyclohexyl]pyrazolo[1,5-a]pyrimidin-7-yl}piperidine-1-carboximidamide hydrochloride]
38 | < 100 nM | Cc1cc([C@H]2CN(S(N)(=O)=O)CCO2)n2nc([C@H]3CC[C@H](C(F)(F)F)CC3)cc2n1 [Example 25, (2R)-2-{5-methyl-2-[trans-4-(trifluoromethyl)cyclohexyl]pyrazolo[1,5-a]pyrimidin-7-yl}morpholine-4-sulfonamide]
39 | < 100 nM | CCc1c(C)nc2cc([C@H]3CC[C@H](C(F)(F)F)CC3)nn2c1[C@]1(C)CCCN(C(C)=O)C1 [Example 34]
40 | < 100 nM | CCc1c(C)nc2cc([C@H]3CC[C@H](C(F)(F)F)CC3)nn2c1[C@@]1(C)CCCN(C(C)=O)C1 [Example 35]
41 | < 100 nM | CC(=O)N1CCCC(c2c(C(C)C)c(C)nc3cc([C@H]4CC[C@H](C(F)(F)F)CC4)nn23)C1 (stereo partly shown) [Example 40]
42 | < 100 nM | CC(=O)N1CCC[C@@](C)(c2cc(C)nc3cc([C@H]4CC[C@H](C(F)(F)F)CC4)nn23)C1 [Example 41]
43 | < 100 nM | CCc1c(C)nc2cc([C@H]3CC[C@H](C(F)(F)F)CC3)nn2c1[C@]1(C)CCCN(S(C)(=O)=O)C1 [Example 44]
